Tested on: Male Sprague Dawley rats
Assay: Forced swimming test (FST)
Assay type: in vivo, rat
Conditions: for FST time spent immobile / decrease in FST time spent immobile vs Sal / decrease in FST time spent immobile vs Veh: Example G; for decrease in FST time spent immobile vs Sal / decrease in FST time spent immobile vs Veh: p<0.05
Experimental: Study Design. Twenty (20) male rats weighing between 175 and 200 g were randomized into 3 study groups (n=6-7/group), following a 5-day acclimation period. All rats were surgically implanted with bilateral IT cannulas in the PFC 2 weeks prior to dosing. […] Thirty minutes following the intrathecal infusions, either NV-5138 vehicle (Veh-NV, 0.5% methylcellulose/0.1% Tween-80) or NV-5138 (160 mg/kg) was administered by oral gavage. Each treatment group was assessed at the designated time following oral dosing in FST 24 hrs (day 1) LMA 48 hrs (day 2) and the NSFT 72 hrs (day 3 following a 20 hr period of fasting). LMA was measured to rule out overall changes in generally locomotor activity. The study design is presented in Table 11 with timeline of surgical procedures, test article administration and behavioral tests is provided in FIG. 20
Preparation of Test Articles. Rapamycin (Cell Signaling; #9904) was prepared in a solution of 10% DMSO (Veh-R) to a final concentration of 10 μM. R or Veh-R was administered bilaterally (0.005 nmol/0.5 μL per side) into the medial PFC via IT infusion 30 min prior to treatment with NV-5138 or Veh-NV by oral gavage. NV-5138 (lot #07) was prepared by dissolving in Veh (0.5% methylcellulose/0.1% Tween-80) at a concentration of 50 mg/mL. The dosing volume based on the weight of the animal (3.2 mL/kg) was administered by oral gavage to study animals in Groups 2 and 3.
Surgical Procedure and Administration of Rapamycin. Rats were steriotactically implanted with a guide cannula (22GA) into the medial PFC (coordinates from bregma: +3.2 AP, ±1.0 ML, -3.5 DV from dura). Surgical procedures were carried out under the anesthesia of Nembutal (i.p. 55 mg/kg). Postoperative care consisted in peri-surgical administration of carprofen (5 mg/kg) and topical triple antibiotic. After a 2-week recovery period, R (0.01 nmol in 1 μL for PFC infusion) or Veh-R was delivered at the rate of 0.25 μL/min with an injection cannula (26GA) protruding 0.5 mm beyond the guide cannula 30 min before oral administration of NV-5138 or Veh-NV.
Study Design. Forty-eight (48) male rats weighing between 175 and 200 g were randomized into 6 study groups (n=8/group), following a 5-day acclimation period. A single dose of all test articles was administered on day 0 and the behavioral tests were performed 3, 7 and 10 days later. Groups 1 and 2 were dosed on day 0 with NV-5138 (160 mg/kg by oral gavage) and Ket (10 mg/kg by i.p. injection), respectively and subjected to a FST on day 3. The rats in Group 3 and 4 received a single dose of the NV-5138 vehicle (Veh) or NV-5138 (160 mg/kg), respectively, by oral gavage on day 0. The rats in Group 5 and 6 received a single dose of the Ket vehicle (Sal) or Ket (10 mg/kg), respectively, by i.p. injection on day 0. The rats in groups 3-6 were subjected to a FST on day 7 and a NSFT on day 10. All rats in groups 3-6 were fasted the night before for 20 hours the NSFT.
Study Design. Twenty-four (24) male Sprague Dawley rats weighing between 175 and 200 g were randomized into 4 study groups (n=6/group), following a 5-day acclimation period. On study day minus 1 rats were subjected to a pre-swim. Beginning on study day 0, rats in Groups 2 received a dose of Ket (10 mg/kg) on alternate days (day 0, 2, 4, and 6) each by i.p. injection. The rats in Groups 1 received a daily dose of Veh by oral gavage for 7 days (days 0 to 6). The rats in Groups 3 and 4 received a daily dose of NV-5138 (40 or 80 mg/kg) for 7 days (days 0 to 6) each by oral gavage. All rats were subjected to the FST on day 7, 24 hrs after last dosing. On day 8, 48 hrs after last dosing, the LMA of all rats was measured in an open field. Rats were then fasted for 20 hrs and subjected to the NSFT on day 9 (72 hrs post-last dose).
Preparation of Test Articles. Ket (Sigma, cat #K1884) was dissolved in Sal at a concentration of 10 mg/mL. Injection volumes (i.p) of 1 mL/kg of Ket were administered to Group 2. […]

[1] = Ket 10 mg/kg i.p. single dose, 3 days after dose
[2] = Ket 10 mg/kg i.p. single dose, 7 days after dose
[3] = NV-5138 160 mg/kg oral single dose, 3 days after dose
[4] = NV-5138 160 mg/kg oral single dose, 7 days after dose

Compound	FST time spent immobile [1]	decrease in FST time spent immobile vs Sal [1]	FST time spent immobile [2]	decrease in FST time spent immobile vs Sal [2]	FST immobility time (Example F, Veh-R IT infusion then NV-5138 160 mg/kg oral, 24 hrs after oral dosing)	decrease in FST immobility time vs Veh-R/Veh-NV (Example F, Veh-R IT infusion then NV-5138 160 mg/kg oral, 24 hrs, p<0.0001)	FST immobility time, R/NV-5138 vs Veh-R/Veh-NV (Example F, rapamycin (R, 0.01 nmol) IT infusion into PFC 30 min before NV-5138 160 mg/kg oral, 24 hrs)	FST time spent immobile [3]	decrease in FST time spent immobile vs Veh [3]	FST time spent immobile [4]	decrease in FST time spent immobile vs Veh [4]	FST (Example I, NV-5138 80 mg/kg oral daily for 7 days, day 7, 24 hrs after last dosing)
CNC1(c2ccccc2Cl)CCCCC1=O (stereo not drawn) [Ket, ketamine, reference compound]	95.5 ± 7.8 s	31%	95.0 ± 11.1 s	31%								
CC(C)(C[C@H](N)C(=O)O)C(F)F [NV-5138]					144 ± 15 s	46%	lack of significant effect on immobility time	87.9 ± 9.0 s	39%	96.0 ± 11.3 s	34%	Significant effects

— patent US20210228523A1, “MODULATORS OF SESTRIN-GATOR2 INTERACTION AND USES THEREOF” (Navitor Pharmaceuticals, Inc., priority 2017, published 2021)
